Source: patent US20250214991A1 (Oncopia Therapeutics, Inc. d/b/a/ SK Life Science Labs, priority 2022, published 2025)
Where a name gives a salt, the structure may show the parent alone. Read-outs that look alike come from different tables or passages of the source.

Legend:
Type in all cases: cell-based
[1] = target: T1, IKZF2 (Homo sapiens (Human), UniProt Q96SW2+Q9UKS7); assay: In vitro IKZF2 HiBit Assay (HEK293T Flp-in-HiBiT cells)
Procedure, shortened: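 Remaining tagged Helios was read as lytic HiBiT/LgBiT luminescence normalized to DMSO, yielding binned DC50 and Dmax values. Treatment ran 6 h, with compounds at 11 three-fold doses diluted from 1 mM and 0.1% final DMSO. The cells were HEK293T Flp-in with CRISPR knock-in of HiBiT at the IKZF2 N-terminus.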

[2] = target: T1, IKZF2; assay: In vitro IKZF2 FACS Assay in Jurkat cells; details: 24 hrs; for DC50: half maximal degradation concentration; for Dmax: maximal degradation percentage
Method: In vitro IKZF2 FACS Assay
DC50, A: <1 nM; B: 1-10 nM; C: 10-100 nM; D: 100-1000 nM; E: >1000 nM. Dmax, A: >80%; B: 60-80%; C: 40-60%; D: 20-40%; E: <20%.

[3] = target: IKZF1 (Homo sapiens (Human), UniProt Q13422+Q96SW2); assay: In vitro IKZF1 HiBit Assay (HEK293T Flp-in-HiBiT-IKZF1 stable cell line)
Procedure, shortened: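 Degradation was measured as loss of luminescence from the HiBiT-IKZF1 tag after 6 h compound treatment, with 0.1% final DMSO, in stable HEK293T Flp-in cells. Values were normalized to DMSO, giving the 50% degradation concentration and the maximal degradation range.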

[4] = HEK293T Flp-in-HiBiT cells, 6 hrs incubation; read-out: IKZF2 HiBit DC50
[5] = HEK-293T; HEK293T Flp-in-HiBiT cells, 6 hrs incubation; read-out: IKZF2 HiBit Dmax (%)
[6] = HEK293T Flp-in-HiBiT-IKZF1 stable cell line, 6 hrs incubation; read-out: IKZF1 HiBit DC50
[7] = HEK-293T; HEK293T Flp-in-HiBiT-IKZF1 stable cell line, 6 hrs incubation; read-out: IKZF1 HiBit Dmax (%)

T1 sequence (Q9UKS7 whole entry): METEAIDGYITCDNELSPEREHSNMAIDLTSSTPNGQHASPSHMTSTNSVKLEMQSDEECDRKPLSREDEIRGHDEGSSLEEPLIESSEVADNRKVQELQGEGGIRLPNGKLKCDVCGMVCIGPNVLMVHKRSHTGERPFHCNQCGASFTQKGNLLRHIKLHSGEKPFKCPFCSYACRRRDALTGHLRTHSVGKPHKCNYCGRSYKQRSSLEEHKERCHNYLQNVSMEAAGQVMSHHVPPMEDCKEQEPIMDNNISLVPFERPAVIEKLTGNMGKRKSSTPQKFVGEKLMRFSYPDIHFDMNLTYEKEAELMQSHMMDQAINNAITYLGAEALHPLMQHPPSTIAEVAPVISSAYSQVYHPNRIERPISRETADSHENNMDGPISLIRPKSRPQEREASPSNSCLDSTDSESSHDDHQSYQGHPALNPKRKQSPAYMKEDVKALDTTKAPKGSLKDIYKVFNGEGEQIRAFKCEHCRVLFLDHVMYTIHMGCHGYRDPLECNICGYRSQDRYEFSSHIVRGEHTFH
T1 sequence (Q96SW2 whole entry): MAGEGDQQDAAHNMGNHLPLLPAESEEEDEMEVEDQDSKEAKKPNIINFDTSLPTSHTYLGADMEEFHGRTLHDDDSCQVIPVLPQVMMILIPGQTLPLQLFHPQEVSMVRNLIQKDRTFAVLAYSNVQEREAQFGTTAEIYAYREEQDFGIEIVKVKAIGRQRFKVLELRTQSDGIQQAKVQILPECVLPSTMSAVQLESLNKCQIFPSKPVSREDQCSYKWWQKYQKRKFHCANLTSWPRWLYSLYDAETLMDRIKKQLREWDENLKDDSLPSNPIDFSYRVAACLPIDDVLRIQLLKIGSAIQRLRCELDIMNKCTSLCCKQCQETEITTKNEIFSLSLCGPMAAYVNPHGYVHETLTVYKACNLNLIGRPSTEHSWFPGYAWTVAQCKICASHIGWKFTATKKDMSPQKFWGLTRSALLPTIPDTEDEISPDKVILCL
T1 sequence (Q16531 2-1140 partner): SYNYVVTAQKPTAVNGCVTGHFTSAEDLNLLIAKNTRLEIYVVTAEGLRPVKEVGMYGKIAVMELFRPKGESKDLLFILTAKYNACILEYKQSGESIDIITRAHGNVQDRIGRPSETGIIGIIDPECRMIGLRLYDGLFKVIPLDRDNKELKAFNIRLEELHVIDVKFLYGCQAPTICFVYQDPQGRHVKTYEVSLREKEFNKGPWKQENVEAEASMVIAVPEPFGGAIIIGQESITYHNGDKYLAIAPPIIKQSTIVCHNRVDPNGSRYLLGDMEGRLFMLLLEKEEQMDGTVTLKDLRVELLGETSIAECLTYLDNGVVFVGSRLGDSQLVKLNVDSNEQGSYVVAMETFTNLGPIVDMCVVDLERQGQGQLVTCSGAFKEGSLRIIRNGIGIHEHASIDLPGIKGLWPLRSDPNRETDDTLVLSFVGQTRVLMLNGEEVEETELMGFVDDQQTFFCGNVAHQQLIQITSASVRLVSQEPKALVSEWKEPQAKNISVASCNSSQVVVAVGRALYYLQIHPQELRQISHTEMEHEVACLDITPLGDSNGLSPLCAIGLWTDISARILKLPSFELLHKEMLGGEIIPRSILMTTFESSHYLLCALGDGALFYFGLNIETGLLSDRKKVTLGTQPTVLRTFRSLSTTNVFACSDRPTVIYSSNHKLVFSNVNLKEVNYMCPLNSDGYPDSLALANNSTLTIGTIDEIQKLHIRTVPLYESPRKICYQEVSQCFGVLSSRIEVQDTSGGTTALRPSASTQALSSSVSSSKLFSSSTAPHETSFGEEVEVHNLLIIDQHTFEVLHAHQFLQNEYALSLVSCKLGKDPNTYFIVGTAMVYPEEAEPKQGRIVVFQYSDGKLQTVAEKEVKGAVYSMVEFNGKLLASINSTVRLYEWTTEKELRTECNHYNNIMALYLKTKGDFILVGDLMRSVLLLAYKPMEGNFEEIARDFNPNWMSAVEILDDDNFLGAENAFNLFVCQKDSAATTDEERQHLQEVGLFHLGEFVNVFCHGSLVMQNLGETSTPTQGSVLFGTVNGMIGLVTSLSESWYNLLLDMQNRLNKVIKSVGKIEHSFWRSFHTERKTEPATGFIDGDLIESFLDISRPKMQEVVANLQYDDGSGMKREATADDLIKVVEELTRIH
IKZF1, sequence (Q13422 whole entry): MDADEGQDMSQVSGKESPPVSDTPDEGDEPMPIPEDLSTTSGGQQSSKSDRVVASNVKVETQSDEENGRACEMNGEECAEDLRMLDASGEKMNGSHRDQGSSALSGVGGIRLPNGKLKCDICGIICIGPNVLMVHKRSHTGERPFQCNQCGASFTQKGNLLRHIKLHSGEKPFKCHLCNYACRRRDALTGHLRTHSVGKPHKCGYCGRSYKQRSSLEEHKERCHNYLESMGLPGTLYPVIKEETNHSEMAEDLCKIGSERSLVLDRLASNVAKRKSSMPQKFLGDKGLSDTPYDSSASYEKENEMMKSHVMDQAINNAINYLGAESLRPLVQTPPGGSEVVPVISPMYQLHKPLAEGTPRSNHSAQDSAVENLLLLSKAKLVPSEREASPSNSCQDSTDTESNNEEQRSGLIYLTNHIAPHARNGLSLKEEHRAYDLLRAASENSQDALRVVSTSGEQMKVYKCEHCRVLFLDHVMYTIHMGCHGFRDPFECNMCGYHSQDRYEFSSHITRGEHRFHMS
IKZF1, sequence (Q96SW2 whole entry): as the sequence (Q96SW2 whole entry) above
IKZF1, sequence (Q16531 2-1140 partner): as the sequence (Q16531 2-1140 partner) above

Row | DC50 [1, 4] | Dmax [1, 5] | DC50 [2] | Dmax [2] | DC50 [3, 6] | Dmax [3, 7] | SMILES | Dmax ([1]; HEK-293T, read-out: IKZF2 HiBit Dmax (%)) | DC50 ([1]; read-out: IKZF2 HiBit DC50; HEK293T Flp-in-HiBiT cells, 6 hrs incubation) | Dmax ([3]; HEK-293T, read-out: IKZF1 HiBit Dmax (%)) | DC50 ([3]; read-out: IKZF1 HiBit DC50; HEK293T Flp-in-HiBiT-IKZF1 stable cell line, 6 hrs incubation)
1 | 1 to 10 nM | > 80% | 1 to 10 nM | > 80% | 10 to 100 nM | 60 to 80% | CN1CC(n2ncc3c(CN4CCCC4)cc(-c4ccc5c(c4)CN(C4CCC(=O)NC4=O)C5=O)nc32)C1 (stereo not drawn) [Example 261, 3-(5-(1-(1-methylazetidin-3-yl)-4-(pyrrolidin-1-ylmethyl)-1H-pyrazolo[3,4-b]pyridin-6-yl)-1-oxoisoindolin-2-yl) piperidine-2,6-dione] | – | – | – | –
2 | 1 to 10 nM | 40 to 60% | 1 to 10 nM | 40 to 60% | > 10000 nM | < 20% | O=C1CCC(N2Cc3cc(-c4cc(CN5CCCC5)c5c(C(F)(F)F)nn(C6COC6)c5n4)ccc3C2=O)C(=O)N1 (stereo not drawn) [Example 245, 3-(5-(1-(oxetan-3-yl)-4-(pyrrolidin-1-ylmethyl)-3-(trifluoromethyl)-1H-pyrazolo[3,4-b]pyridin-6-yl)-1-oxoisoindolin-2-yl) piperidine-2,6-dione] | – | – | – | –
3 | < 1 nM | > 80% | < 1 nM | > 80% | 100 to 1000 nM | 20 to 40% | Cn1cc(-n2ccc3c(CN4CCCC4)cc(-c4ccc5c(c4)CN(C4CCC(=O)NC4=O)C5=O)nc32)cn1 (stereo not drawn) [Example 248, 3-(5-(1-(1-methyl-1H-pyrazol-4-yl)-4-(pyrrolidin-1-ylmethyl)-1H-pyrrolo[2,3-b]pyridin-6-yl)-1-oxoisoindolin-2-yl) piperidine-2,6-dione] | – | – | – | –
4 | 1 to 10 nM | > 80% | 1 to 10 nM | > 80% | > 10000 nM | < 20% | Cc1cn(C2COC2)c2nc(-c3ccc4c(c3)CN(C3CCC(=O)NC3=O)C4=O)cc(CN3CCCC3)c12 (stereo not drawn) [Example 240, 3-(5-(3-methyl-1-(oxetan-3-yl)-4-(pyrrolidin-1-ylmethyl)-1H-pyrrolo[2,3-b]pyridin-6-yl)-1-oxoisoindolin-2-yl) piperidine-2,6-dione] | – | – | – | –
5 | 1 to 10 nM | > 80% | 1 to 10 nM | 60 to 80% | > 10000 nM | < 20% | Cn1ccc(-n2ccc3c(CN4CCCC4)cc(-c4ccc5c(c4)CN([C@H]4CCC(=O)NC4=O)C5=O)nc32)n1 [Example 265, (S)-3-(5-(1-(1-methyl-1H-pyrazol-3-yl)-4-(pyrrolidin-1-ylmethyl)-1H-pyrrolo[2,3-b]pyridin-6-yl)-1-oxoisoindolin-2-yl) piperidine-2,6-dione] | – | – | – | –

Further lines, the compound ahead of its results:

Row | SMILES | DC50 [1, 4] | Dmax [1, 5] | DC50 [2] | Dmax [2] | DC50 [3, 6] | Dmax [3, 7] | Dmax ([1]; HEK-293T, read-out: IKZF2 HiBit Dmax (%)) | DC50 ([1]; read-out: IKZF2 HiBit DC50; HEK293T Flp-in-HiBiT cells, 6 hrs incubation) | Dmax ([3]; HEK-293T, read-out: IKZF1 HiBit Dmax (%)) | DC50 ([3]; read-out: IKZF1 HiBit DC50; HEK293T Flp-in-HiBiT-IKZF1 stable cell line, 6 hrs incubation)
6 | COC1CCN(Cc2cc(-c3ccc4c(c3F)CN(C3CCC(=O)NC3=O)C4=O)nc3c2ccn3C2CS(=O)(=O)C2)CC1 (stereo not drawn) [Example 266, 3-(5-(1-(1,1-dioxidothietan-3-yl)-4-((4-methoxypiperidin-1-yl)methyl)-1H-pyrrolo[2,3-b]pyridin-6-yl)-4-fluoro-1-oxoisoindolin-2-yl) piperidine-2,6-dione formate] | 1 to 10 nM | > 80% | 1 to 10 nM | > 80% | 10 to 100 nM | 40 to 60% | – | – | – | –
7 | CO[C@H]1C[C@H](Oc2ccnc3c(CN4CCCC4)cc(-c4ccc5c(c4)CN(C4CCC(=O)NC4=O)C5=O)nc23)C1 (stereo partly drawn) [Example 280, 3-(5-(8-((1r,3r)-3-methoxycyclobutoxy)-4-(pyrrolidin-1-ylmethyl)-1,5-naphthyridin-2-yl)-1-oxoisoindolin-2-yl) piperidine-2,6-dione] | 10 to 100 nM | 60 to 80% | 10 to 100 nM | 60 to 80% | > 10000 nM | < 20% | – | – | – | –
8 | CC(C)Nc1n[nH]c2c(CN3CC4(CCOCC4)C3)cc(-c3ccc4c(c3F)CN(C3CCC(=O)NC3=O)C4=O)nc12 (stereo not drawn) [Example 289, 3-(5-(7-((7-oxa-2-azaspiro[3.5]nonan-2-yl)methyl)-3-(isopropylamino)-1H-pyrazolo[4,3-b]pyridin-5-yl)-4-fluoro-1-oxoisoindolin-2-yl) piperidine-2,6-dione] | 1 to 10 nM | > 80% | 1 to 10 nM | > 80% | 10 to 100 nM | 40 to 60% | – | – | – | –
9 | CC1(C)CCCN1Cc1cc(-c2ccc3c(c2)CN(C2CCC(=O)NC2=O)C3=O)nc2c1ccn2C1COC1 (stereo not drawn) [Example 254, 3-(5-(4-((2,2-dimethylpyrrolidin-1-yl)methyl)-1-(oxetan-3-yl)-1H-pyrrolo[2,3-b]pyridin-6-yl)-1-oxoisoindolin-2-yl) piperidine-2,6-dione] | – | – | 10 to 100 nM | 60 to 80% | – | – | 60 to 80% | 1 to 10 nM | < 20% | > 10000 nM
10 | Cn1ccc2c(CN3CCCC3)c(Cl)c(-c3ccc4c(c3F)CN(C3CCC(=O)NC3=O)C4=O)nc21 (stereo not drawn) [Example 277, 3-(5-(5-chloro-1-methyl-4-(pyrrolidin-1-ylmethyl)-1H-pyrrolo[2,3-b]pyridin-6-yl)-4-fluoro-1-oxoisoindolin-2-yl) piperidine-2,6-dione] | < 1 nM | > 80% | 1 to 10 nM | > 80% | > 10000 nM | < 20% | – | – | – | –
11 | CC1c2cc(-c3cc(CN4CCCC4)c4ccn(C5COC5)c4n3)ccc2C(=O)N1C1CCC(=O)NC1=O (stereo not drawn) [Example 276, 3-(3-methyl-5-(1-(oxetan-3-yl)-4-(pyrrolidin-1-ylmethyl)-1H-pyrrolo[2,3-b]pyridin-6-yl)-1-oxoisoindolin-2-yl) piperidine-2,6-dione] | 1 to 10 nM | > 80% | 1 to 10 nM | > 80% | > 10000 nM | < 20% | – | – | – | –
12 | Nc1n[nH]c2c(CN3CCCC3)cc(-c3ccc4c(c3)CN(C3CCC(=O)NC3=O)C4=O)nc12 (stereo not drawn) [Example 151, 3-(5-(3-amino-7-(pyrrolidin-1-ylmethyl)-1H-pyrazolo[4,3-b]pyridin-5-yl)-1-oxoisoindolin-2-yl) piperidine-2,6-dione] | 1 to 10 nM | > 80% | 1 to 10 nM | > 80% | > 10000 nM | < 20% | – | – | – | –
13 | CC1c2cc(-c3cc(CN4CCCC4)c4ccn(C5CS(=O)(=O)C5)c4n3)ccc2C(=O)N1C1CCC(=O)NC1=O (stereo not drawn) [Example 292, 3-(5-(1-(1,1-dioxidothietan-3-yl)-4-(pyrrolidin-1-ylmethyl)-1H-pyrrolo[2,3-b]pyridin-6-yl)-3-methyl-1-oxoisoindolin-2-yl) piperidine-2,6-dione] | 1 to 10 nM | > 80% | 1 to 10 nM | > 80% | 10 to 100 nM | 20 to 40% | – | – | – | –
14 | CC(C)Nc1n[nH]c2c(CN3CCCC3)cc(-c3ccc4c(c3)C(C)N(C3CCC(=O)NC3=O)C4=O)nc12 (stereo not drawn) [Example 293, 3-(5-(3-(isopropylamino)-7-(pyrrolidin-1-ylmethyl)-1H-pyrazolo[4,3-b]pyridin-5-yl)-3-methyl-1-oxoisoindolin-2-vl) piperidine-2,6-dione] | 1 to 10 nM | > 80% | 1 to 10 nM | > 80% | > 10000 nM | < 20% | – | – | – | –
15 | O=C1CCC(N2Cc3cc(-c4nc(CN5CCCC5)c5ccn(C6CS(=O)(=O)C6)c5n4)ccc3C2=O)C(=O)N1 (stereo not drawn) [Example 220, 3-(5-(7-(1,1-dioxidothietan-3-yl)-4-(pyrrolidin-1-ylmethyl)-7H-pyrrolo[2,3-d]pyrimidin-2-yl)-1-oxoisoindolin-2-yl) piperidine-2,6-dione] | 10 to 100 nM | 60 to 80% | 10 to 100 nM | 40 to 60% | > 10000 nM | < 20% | – | – | – | –
16 | CCNc1n[nH]c2c(CN3CCCC3)cc(-c3ccc4c(c3F)CN(C3CCC(=O)NC3=O)C4=O)nc12 (stereo not drawn) [Example 291, 3-(5-(3-(ethylamino)-7-(pyrrolidin-1-ylmethyl)-1H-pyrazolo[4,3-b]pyridin-5-yl)-4-fluoro-1-oxoisoindolin-2-yl) piperidine-2,6-dione] | < 1 nM | > 80% | < 1 nM | > 80% | 10 to 100 nM | 40 to 60% | – | – | – | –
17 | O=C1CCC(N2Cc3cc(-c4cc(CN5CCCCC56CC6)c5ccn(C6COC6)c5n4)ccc3C2=O)C(=O)N1 (stereo not drawn) [Example 264, 3-(5-(4-((4-azaspiro[2.5]octan-4-yl)methyl)-1-(oxetan-3-yl)-1H-pyrrolo[2,3-b]pyridin-6-yl)-1-oxoisoindolin-2-yl) piperidine-2,6-dione] | 1 to 10 nM | 60 to 80% | 10 to 100 nM | 40 to 60% | > 10000 nM | < 20% | – | – | – | –
18 | CCNc1n[nH]c2c(CN3CCCC3)cc(-c3ccc4c(c3)CN(C3CCC(=O)NC3=O)C4=O)nc12 (stereo not drawn) [Example 199, 3-(5-(3-(ethylamino)-7-(pyrrolidin-1-ylmethyl)-1H-pyrazolo[4,3-b]pyridin-5-yl)-1-oxoisoindolin-2-yl) piperidine-2,6-dione] | 1 to 10 nM | > 80% | 10 to 100 nM | 60 to 80% | 10 to 100 nM | 20 to 40% | – | – | – | –
